# Data: the supplement of paper PMC7840683
# Structures can show the parent of a compound that is named as a salt. ± gives the standard deviation of the averaged measurements.
# Tested on: HepaRG
# Assay: LDH release cytotoxicity, % of total lysis control; higher = more cytotoxic
# Conditions: 48 h
# Summary of the method: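 Eight-point half-log series of test chemicals, the highest at 100 µM, were given in duplicate for 48 h to single-lot HepaRG cells on collagen I-coated 96-well plates in serum-free induction medium with 0.5% DMSO. A Tecan Safire read resorufin fluorescence from CytoTox-ONE as a measure of LDH in 50 µL spent medium, with 0.1% Triton X in total lysis wells. Percent cytotoxicity was normalized to on-plate vehicle and total lysis controls and averaged over the duplicates.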
Compound,LDH release cytotoxicity (0.03162 µM),LDH release cytotoxicity (0.1 µM),LDH release cytotoxicity (0.3162278 µM),LDH release cytotoxicity (1 µM),LDH release cytotoxicity (3.16228 µM),LDH release cytotoxicity (10 µM),LDH release cytotoxicity (31.6228 µM),LDH release cytotoxicity (100 µM),LDH release cytotoxicity (0.031623 µM),LDH release cytotoxicity (0.316228 µM),LDH release cytotoxicity (0.0314647 µM),LDH release cytotoxicity (0.0995 µM),LDH release cytotoxicity (0.3146466 µM),LDH release cytotoxicity (0.995 µM),LDH release cytotoxicity (3.14647 µM),LDH release cytotoxicity (9.95 µM),LDH release cytotoxicity (31.4647 µM),LDH release cytotoxicity (99.5 µM)
Cc1ccc(-c2cc(C(F)(F)F)nn2-c2ccc(S(N)(=O)=O)cc2)cc1 [Celecoxib],-1.06 ± 0.3%,-0.435 ± 0.23%,-0.88 ± 0.78%,-1.96 ± 0.9%,-1.21 ± 1%,-0.583 ± 0.15%,3.13 ± 1.4%,89.34 ± 0.16%,–,–,–,–,–,–,–,–,–,–
Nc1cc(Cl)cc(C(=O)O)c1Cl [Chloramben],0.283 ± 2.4%,-1.57 ± 0.016%,-0.351 ± 2.3%,-0.882 ± 0.8%,-1.46 ± 0.83%,-0.217 ± 0.85%,-0.618 ± 0.29%,0.291 ± 0.12%,–,–,–,–,–,–,–,–,–,–
ClC1=C(Cl)C2(Cl)C3C(Cl)C(Cl)CC3C1(Cl)C2(Cl)Cl (configuration not stated) [Chlordane],-0.889 ± 1.7%,-0.0312 ± 0.73%,-1.4 ± 0.067%,-2.2 ± 0.83%,-1.5 ± 0.36%,-0.57 ± 0.073%,-0.758 ± 0.6%,12 ± 4.7%,–,–,–,–,–,–,–,–,–,–
O=C(O)C1C(C(=O)O)C2(Cl)C(Cl)=C(Cl)C1(Cl)C2(Cl)Cl (configuration not stated) [Chlorendic acid],-0.458 ± 0.46%,-0.878 ± 0.64%,-1.72 ± 0.51%,-1.15 ± 0.69%,-0.967 ± 0.21%,-0.519 ± 0.29%,-0.436 ± 0.8%,0.638 ± 1.1%,–,–,–,–,–,–,–,–,–,–
CCOP(=S)(OCC)OC(Cl)C(Cl)(Cl)Cl (configuration not stated) [Chlorethoxyfos],-1.98 ± 0.044%,-1.72 ± 0.32%,-0.757 ± 0.55%,-2.38 ± 0.29%,-1.72 ± 0.38%,-0.842 ± 0.087%,-1.18 ± 0.36%,-1.1 ± 0.44%,–,–,–,–,–,–,–,–,–,–
N=C1C=NN(c2ccccc2)C(=O)C1Cl (configuration not stated) [Chloridazon],-1.49 ± 0.4%,-1.35 ± 0.3%,-0.939 ± 0.84%,-1.3 ± 0.23%,-0.697 ± 0.44%,-0.282 ± 0.67%,-0.579 ± 1.3%,2.76 ± 0.26%,–,–,–,–,–,–,–,–,–,–
CCOC(=O)C(O)(c1ccc(Cl)cc1)c1ccc(Cl)cc1 [Chlorobenzilate],-0.592 ± 1.7%,-1.28 ± 2.1%,-1.55 ± 0.35%,-2.17 ± 0.12%,-2.04 ± 1.4%,-1.17 ± 0.5%,-0.669 ± 0.95%,3.46 ± 1.6%,–,–,–,–,–,–,–,–,–,–
COc1cc(Cl)c(OC)cc1Cl [Chloroneb],-1.52 ± 0.84%,-0.787 ± 0.028%,-1.49 ± 0.12%,-2.31 ± 0.56%,-1.57 ± 0.11%,-0.979 ± 0.73%,-0.777 ± 0.15%,0.671 ± 2.6%,–,–,–,–,–,–,–,–,–,–
N#Cc1c(Cl)c(Cl)c(Cl)c(C#N)c1Cl [Chlorothalonil],–,-1.96 ± 3.7%,–,-2.72 ± 1.5%,-0.469 ± 1.9%,4.78 ± 0.7%,20.5 ± 1.1%,48.7 ± 34%,-0.0289 ± 0.73%,-3.42 ± 0.39%,–,–,–,–,–,–,–,–
CN(C)CCCN1c2ccccc2Sc2ccc(Cl)cc21 [Chlorpromazine hydrochloride],–,-1.97 ± 1.4%,–,-2.9 ± 0.0051%,-1.62 ± 1.7%,-1.31 ± 0.15%,10.7 ± 2%,77.6 ± 2.4%,-1.42 ± 0.91%,-1.98 ± 0.49%,–,–,–,–,–,–,–,–
CC(C)OC(=O)Nc1cccc(Cl)c1 [Chlorpropham],-1.82 ± 0.15%,-0.0252 ± 1.6%,-2.28 ± 0.48%,-2.1 ± 0.63%,-1.45 ± 0.039%,-1.72 ± 0.48%,-1.01 ± 0.056%,1.41 ± 0.48%,–,–,–,–,–,–,–,–,–,–
CCOP(=O)(OCC)Oc1nc(Cl)c(Cl)cc1Cl [Chlorpyrifos oxon],-1.8 ± 0.21%,-1.33 ± 0.45%,-1.43 ± 0.73%,-1.55 ± 0.93%,-0.451 ± 0.67%,0.221 ± 0.3%,0.828 ± 0.99%,2.9 ± 1.2%,–,–,–,–,–,–,–,–,–,–
COP(=S)(OC)Oc1nc(Cl)c(Cl)cc1Cl [Chlorpyrifos-methyl],–,–,–,–,–,–,–,–,–,–,-1.653 ± 0.012%,-0.997 ± 0.086%,-0.895 ± 1.2%,-1.1 ± 0.81%,-1.09 ± 0.5%,-0.401 ± 0.0061%,0.323 ± 0.39%,3.84 ± 0.34%
CCOP(=S)(OCC)Oc1nc(Cl)c(Cl)cc1Cl [Chlorpyrifos],0.564 ± 0.48%,-0.761 ± 0.45%,-1.52 ± 0.69%,-1.1 ± 0.089%,-0.11 ± 0.44%,-0.852 ± 0.46%,-0.29 ± 0.55%,0.964 ± 0.32%,–,–,–,–,–,–,–,–,–,–
COC(=O)c1c(Cl)c(Cl)c(C(=O)OC)c(Cl)c1Cl [Chlorthal-dimethyl],-0.87 ± 0.31%,-0.884 ± 1.1%,-1.01 ± 0.16%,-0.618 ± 0.39%,-0.53 ± 0.67%,0.0929 ± 0.87%,-0.208 ± 0.25%,1.01 ± 0.28%,–,–,–,–,–,–,–,–,–,–
Cc1ccccc1COC1CC2(C(C)C)CCC1(C)O2 (configuration not stated) [Cinmethylin],-0.203 ± 0.059%,-1.15 ± 0.52%,-1.3 ± 0.27%,-1.23 ± 0.093%,-1.09 ± 0.76%,-0.853 ± 0.059%,-0.668 ± 0.63%,1.99 ± 1.4%,–,–,–,–,–,–,–,–,–,–
O=C(O)CC(O)(CC(=O)O)C(=O)O [Citric acid],0.134 ± 0.67%,-0.835 ± 0.31%,-0.0952 ± 0.86%,-1.29 ± 0.12%,-0.803 ± 0.025%,0.951 ± 0.43%,0.893 ± 0.17%,0.958 ± 0.17%,–,–,–,–,–,–,–,–,–,–
CC(C)=CCCC(C)CCO (configuration not stated) [Citronellol],-1.93 ± 0.69%,-2.94 ± 0.29%,-2.48 ± 0.3%,-2.8 ± 0.43%,-2.02 ± 0.57%,-2.14 ± 0.43%,-1.61 ± 0.76%,0.398 ± 0.43%,–,–,–,–,–,–,–,–,–,–
Nc1nc(Cl)nc2c1ncn2C1CC(O)C(CO)O1 (configuration not stated) [Cladribine],1.26 ± 0.91%,0.387 ± 1.1%,1.42 ± 0.94%,1.39 ± 0.35%,3.14 ± 0.5%,7.59 ± 0.6%,10.9 ± 2%,13.4 ± 1%,–,–,–,–,–,–,–,–,–,–
